According to PMC10746543, “Design principles for cyclin K molecular glue degraders” (Nature Chemical Biology, 2023):
“And” between values parts separate entries of the source, which are not always exact repeats. Equal values may be shown once. Read-outs that look alike come from different tables or passages of the source.

Columns and labels:
CDK12–cyclin K and DDB1 = biological target: T1, CDK12–cyclin K and DDB1 (Homo sapiens, UniProt Q16531+Q9NYV4, K965R); assay: TR-FRET ternary complex formation assay (compound titration); assay type: binding
T1 construct: His6–CDK12 (a.a. 713–1,052); full-length or beta-propeller B domain deletion (ΔBPB: a.a. 396–705 deleted) constructs of His6–DDB1ΔBPB, StrepII–Avi–DDB1, or His6–Spy–DDB1; made in house; host or cells: Trichoplusia ni High Five insect cells (baculovirus)
Outline: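 Delayed (70 μs) time-resolved read; FRET computed as 520 nm over 490 nm emission.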

[1] = system: cyclin K–eGFP degradation reporter; assay: Cyclin K reporter stability analysis (dual-color cyclin K–eGFP reporter); assay type: cell-based, human; settings: source data sheet correlations; read-out: DC50
Outline: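 First, reporter-bearing HEK293T–Cas9 cells are plated at 1 × 10^6 ml^−1. Next, drug or vehicle is added for 5 h. Finally, geometric-mean eGFP and mCherry signals of round, mCherry-positive cells are measured cytometrically, and their ratio is referenced to the DMSO average.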

HEK293T cells = assay: Drug sensitivity assay (CellTiter-Glo viability) with or without MLN4924 pretreatment; assay type: cell-based, human; settings: Supplementary Table 2
Outline: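 Viability of HEK293T–Cas9 cells was compared after 3-day drug treatment with or without 100 nM MLN4924 pretreatment (2 h, versus DMSO). Values are CellTiter-Glo signals relative to DMSO controls.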

CDK12–cyclin K = CDK12–cyclin K (Homo sapiens, UniProt Q9NYV4); assay: Lanthascreen kinase binding assay, CDK12; settings: for Lanthascreen raw signal, sheet CDK12: series r37, duplicates
Procedure: (§1) Lanthascreen experiments were performed using commercially available reagents (Thermo Fisher) and according to the manufacturer’s instructions.

CDK9–cyclin T = biological target: T2, CDK9–cyclin T (Homo sapiens, UniProt P50750); assay: Lanthascreen kinase binding assay, CDK9; settings: for Lanthascreen TR-FRET signal (raw ratio), sheet CDK9: third titration set (r25), duplicates
T2 construct: purchased Thermo Fisher
Procedure: as §1

CDK2–cyclin A = biological target: T3, CDK2–cyclin A (Homo sapiens, UniProt P24941); assay: Lanthascreen kinase binding assay, CDK2; settings: for Lanthascreen signal, sheet CDK2: raw replicates, experiment r36-r46
T3 construct: purchased Thermo Fisher
Procedure: as §1

T1 sequence (Q9NYV4 713-1052 K965R): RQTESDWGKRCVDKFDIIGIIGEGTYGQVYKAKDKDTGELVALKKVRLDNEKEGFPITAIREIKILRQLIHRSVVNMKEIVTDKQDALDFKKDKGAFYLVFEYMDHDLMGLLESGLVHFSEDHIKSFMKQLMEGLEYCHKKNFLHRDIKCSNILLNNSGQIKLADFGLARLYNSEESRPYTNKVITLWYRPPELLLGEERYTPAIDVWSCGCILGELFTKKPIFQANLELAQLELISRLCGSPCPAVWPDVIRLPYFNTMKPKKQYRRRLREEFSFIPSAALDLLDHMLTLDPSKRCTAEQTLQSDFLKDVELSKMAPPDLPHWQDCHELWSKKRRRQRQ
T1 sequence (O75909 1-267 partner): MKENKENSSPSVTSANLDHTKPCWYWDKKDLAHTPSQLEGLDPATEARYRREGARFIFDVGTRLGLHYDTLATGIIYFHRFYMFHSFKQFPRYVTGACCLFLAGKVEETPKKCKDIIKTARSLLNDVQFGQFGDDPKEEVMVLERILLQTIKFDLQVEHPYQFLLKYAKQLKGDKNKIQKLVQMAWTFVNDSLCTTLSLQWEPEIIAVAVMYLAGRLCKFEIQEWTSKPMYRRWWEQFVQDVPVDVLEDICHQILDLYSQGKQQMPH
T1 sequence (Q16531 whole entry): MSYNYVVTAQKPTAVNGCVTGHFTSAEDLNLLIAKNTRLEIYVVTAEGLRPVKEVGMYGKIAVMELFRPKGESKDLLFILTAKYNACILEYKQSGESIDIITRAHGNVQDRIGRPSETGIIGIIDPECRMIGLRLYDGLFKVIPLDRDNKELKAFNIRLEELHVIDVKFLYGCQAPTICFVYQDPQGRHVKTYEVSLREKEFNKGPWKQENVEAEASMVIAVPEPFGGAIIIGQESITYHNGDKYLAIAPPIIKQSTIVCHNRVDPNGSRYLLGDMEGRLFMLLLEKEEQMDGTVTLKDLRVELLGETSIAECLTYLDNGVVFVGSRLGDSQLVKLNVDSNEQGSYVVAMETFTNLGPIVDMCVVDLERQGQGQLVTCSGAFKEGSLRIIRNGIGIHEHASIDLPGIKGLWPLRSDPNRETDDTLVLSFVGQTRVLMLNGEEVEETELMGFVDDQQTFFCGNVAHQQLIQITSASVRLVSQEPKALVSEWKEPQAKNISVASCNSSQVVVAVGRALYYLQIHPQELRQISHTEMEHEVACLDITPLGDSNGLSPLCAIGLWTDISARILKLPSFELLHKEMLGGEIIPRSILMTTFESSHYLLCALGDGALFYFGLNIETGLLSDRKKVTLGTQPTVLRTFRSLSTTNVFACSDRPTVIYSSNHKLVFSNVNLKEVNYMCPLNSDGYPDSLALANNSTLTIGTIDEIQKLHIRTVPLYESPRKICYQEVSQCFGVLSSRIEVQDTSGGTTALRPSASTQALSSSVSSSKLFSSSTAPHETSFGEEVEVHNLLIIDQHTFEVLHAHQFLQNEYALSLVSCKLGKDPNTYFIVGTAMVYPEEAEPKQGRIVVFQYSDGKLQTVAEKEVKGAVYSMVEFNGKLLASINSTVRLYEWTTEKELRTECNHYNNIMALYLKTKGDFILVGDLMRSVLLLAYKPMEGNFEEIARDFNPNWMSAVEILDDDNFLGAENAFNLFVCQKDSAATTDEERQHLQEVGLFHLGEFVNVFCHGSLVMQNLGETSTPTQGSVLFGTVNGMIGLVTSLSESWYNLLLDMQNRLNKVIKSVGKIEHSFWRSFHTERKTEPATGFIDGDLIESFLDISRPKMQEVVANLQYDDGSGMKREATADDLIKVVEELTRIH
T2 sequence (P50750 whole entry): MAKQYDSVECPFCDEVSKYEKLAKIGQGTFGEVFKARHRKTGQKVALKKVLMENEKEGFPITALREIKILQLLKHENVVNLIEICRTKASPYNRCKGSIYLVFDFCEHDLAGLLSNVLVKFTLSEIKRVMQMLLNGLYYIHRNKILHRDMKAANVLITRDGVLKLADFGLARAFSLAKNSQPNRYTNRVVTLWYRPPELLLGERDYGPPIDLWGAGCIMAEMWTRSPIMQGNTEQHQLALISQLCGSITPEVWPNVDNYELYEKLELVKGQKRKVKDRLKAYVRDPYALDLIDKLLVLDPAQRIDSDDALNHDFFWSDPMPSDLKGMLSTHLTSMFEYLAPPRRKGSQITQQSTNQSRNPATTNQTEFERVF
T2 sequence (O60563 whole entry partner): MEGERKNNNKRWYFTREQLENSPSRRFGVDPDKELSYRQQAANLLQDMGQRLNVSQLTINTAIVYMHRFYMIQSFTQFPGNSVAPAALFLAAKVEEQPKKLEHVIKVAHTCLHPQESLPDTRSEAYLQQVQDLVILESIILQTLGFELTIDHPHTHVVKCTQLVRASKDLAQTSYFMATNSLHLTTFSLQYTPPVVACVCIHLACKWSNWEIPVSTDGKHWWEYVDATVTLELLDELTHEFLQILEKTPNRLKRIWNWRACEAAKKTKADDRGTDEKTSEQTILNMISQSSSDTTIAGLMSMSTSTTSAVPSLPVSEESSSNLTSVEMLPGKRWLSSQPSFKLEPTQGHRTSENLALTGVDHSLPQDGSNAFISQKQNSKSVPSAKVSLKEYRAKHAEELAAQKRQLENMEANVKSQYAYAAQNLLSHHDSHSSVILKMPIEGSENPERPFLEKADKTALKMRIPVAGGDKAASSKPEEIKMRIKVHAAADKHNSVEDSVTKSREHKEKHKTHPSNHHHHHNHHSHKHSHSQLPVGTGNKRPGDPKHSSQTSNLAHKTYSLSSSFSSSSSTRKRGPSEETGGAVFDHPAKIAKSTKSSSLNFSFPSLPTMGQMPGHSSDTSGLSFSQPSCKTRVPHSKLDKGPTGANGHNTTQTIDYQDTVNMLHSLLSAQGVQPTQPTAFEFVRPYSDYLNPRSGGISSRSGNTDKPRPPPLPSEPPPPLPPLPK
Chain of CDK12–cyclin K (Q9NYV4 713-1052): as the sequence (Q9NYV4 713-1052 K965R) above, with R253K counted along it
Chain of CDK12–cyclin K (O75909 1-267 partner limits assumed): as the sequence (O75909 1-267 partner) above

TR-FRET signal at compound concentration 0.468 nM (CDK12–cyclin K and DDB1; raw replicate titration data): 0.2796 and 0.2825 and 0.2274 and 0.2285
TR-FRET signal at compound concentration 0.468 nM (CDK12–cyclin K and DDB1; raw titration data): 0.2796 and 0.2825 and 0.2274 and 0.2285
TR-FRET signal at compound concentration 2.16 nM (CDK12–cyclin K and DDB1; raw replicate titration data): 0.4207 and 0.4231 and 0.3525 and 0.3569
TR-FRET signal at compound concentration 2.16 nM (CDK12–cyclin K and DDB1; raw titration data): 0.4207 and 0.4231 and 0.3525 and 0.3569
TR-FRET signal at compound concentration 3.6 nM (CDK12–cyclin K and DDB1; raw replicate titration data): 0.7048 and 0.756 and 0.6232 and 0.6327
TR-FRET signal at compound concentration 3.6 nM (CDK12–cyclin K and DDB1; raw titration data): 0.7048 and 0.756 and 0.6232 and 0.6327
TR-FRET signal at compound concentration 7.92001 nM (CDK12–cyclin K and DDB1; raw replicate titration data): 1.442 and 1.475 and 1.209 and 1.266
TR-FRET signal at compound concentration 7.92001 nM (CDK12–cyclin K and DDB1; raw titration data): 1.442 and 1.475 and 1.209 and 1.266
TR-FRET signal at compound concentration 15.84 nM (CDK12–cyclin K and DDB1; raw replicate titration data): 2.559 and 2.574 and 2.155 and 2.284
TR-FRET signal at compound concentration 15.84 nM (CDK12–cyclin K and DDB1; raw titration data): 2.559 and 2.574 and 2.155 and 2.284
TR-FRET signal at compound concentration 30.96 nM (CDK12–cyclin K and DDB1; raw replicate titration data): 3.476 and 3.44 and 3.283 and 3.355
TR-FRET signal at compound concentration 30.96 nM (CDK12–cyclin K and DDB1; raw titration data): 3.476 and 3.44 and 3.283 and 3.355
TR-FRET signal at compound concentration 62.6401 nM (CDK12–cyclin K and DDB1; raw replicate titration data): 3.895 and 3.93 and 3.8348 and 3.842
TR-FRET signal at compound concentration 62.6401 nM (CDK12–cyclin K and DDB1; raw titration data): 3.895 and 3.93 and 3.8348 and 3.842
TR-FRET signal at compound concentration 125.28 nM (CDK12–cyclin K and DDB1; raw replicate titration data): 4.03 and 4.166 and 4.089 and 4.0346
TR-FRET signal at compound concentration 125.28 nM (CDK12–cyclin K and DDB1; raw titration data): 4.03 and 4.166 and 4.089 and 4.0346
TR-FRET signal at compound concentration 244.8 nM (CDK12–cyclin K and DDB1; raw replicate titration data): 3.953 and 4.0607 and 4.092 and 4.114
TR-FRET signal at compound concentration 244.8 nM (CDK12–cyclin K and DDB1; raw titration data): 3.953 and 4.0607 and 4.092 and 4.114
TR-FRET signal at compound concentration 993.601 nM (CDK12–cyclin K and DDB1; raw replicate titration data): 4.102 and 4.235 and 4.304 and 4.258
TR-FRET signal at compound concentration 993.601 nM (CDK12–cyclin K and DDB1; raw titration data): 4.102 and 4.235 and 4.304 and 4.258
TR-FRET signal at compound concentration 2001.6 nM (CDK12–cyclin K and DDB1; raw replicate titration data): 4.005 and 4.144 and 4.249 and 4.271
TR-FRET signal at compound concentration 2001.6 nM (CDK12–cyclin K and DDB1; raw titration data): 4.005 and 4.144 and 4.249 and 4.271
EC50 (CDK12–cyclin K and DDB1; in vitro complex formation, 50 nM CDK12–cyclin K, 100 nM DDB1, text and figures, read-out: TR-FRET EC50): 14 ± 0.3 nM
EC50 (CDK12–cyclin K and DDB1; sheet MOESM7, read-out: log TR-FRET EC50 (converted)): 14 nM
DC50 [1]: 62 nM
IC50 (CDK12–cyclin K; Supplementary Table 2, read-out: Lanthascreen IC50 [nM] CDK12): 163 nM
Lanthascreen raw signal, sheet CDK12 (CDK12–cyclin K; compound 0.038147 nM): 0.01386 and 0.01388
Lanthascreen raw signal, sheet CDK12 (CDK12–cyclin K; compound 0.152588 nM): 0.01386 and 0.01359
Lanthascreen raw signal, sheet CDK12 (CDK12–cyclin K; compound 0.610352 nM): 0.01429 and 0.01468
Lanthascreen raw signal, sheet CDK12 (CDK12–cyclin K; compound 9.76563 nM): 0.01424 and 0.01408
Lanthascreen raw signal, sheet CDK12 (CDK12–cyclin K; compound 39.0625 nM): 0.0128 and 0.01286
Lanthascreen raw signal, sheet CDK12 (CDK12–cyclin K; compound 156.25 nM): 0.01155 and 0.01121
Lanthascreen raw signal, sheet CDK12 (CDK12–cyclin K; compound 625 nM): 0.01099 and 0.009814
Lanthascreen raw signal, sheet CDK12 (CDK12–cyclin K; compound 2500 nM): 0.009116 and 0.009896
Lanthascreen raw signal, sheet CDK12 (CDK12–cyclin K; compound 10000 nM): 0.008961 and 0.008941
IC50 (CDK9–cyclin T; Supplementary Table 2, read-out: Lanthascreen IC50 [nM] CDK9): 143 nM
Lanthascreen TR-FRET signal (raw ratio), sheet CDK9 (CDK9–cyclin T; compound 0.038147 nM): 0.02142 and 0.0184
Lanthascreen TR-FRET signal (raw ratio), sheet CDK9 (CDK9–cyclin T; compound 0.152588 nM): 0.02078 and 0.0198
Lanthascreen TR-FRET signal (raw ratio), sheet CDK9 (CDK9–cyclin T; compound 0.610352 nM): 0.02132 and 0.01977
Lanthascreen TR-FRET signal (raw ratio), sheet CDK9 (CDK9–cyclin T; compound 9.76563 nM): 0.02157 and 0.01927
Lanthascreen TR-FRET signal (raw ratio), sheet CDK9 (CDK9–cyclin T; compound 39.0625 nM): 0.01848 and 0.01637
Lanthascreen TR-FRET signal (raw ratio), sheet CDK9 (CDK9–cyclin T; compound 156.25 nM): 0.01444 and 0.01311
Lanthascreen TR-FRET signal (raw ratio), sheet CDK9 (CDK9–cyclin T; compound 625 nM): 0.01104 and 0.009432
Lanthascreen TR-FRET signal (raw ratio), sheet CDK9 (CDK9–cyclin T; compound 2500 nM): 0.009751 and 0.009192
Lanthascreen TR-FRET signal (raw ratio), sheet CDK9 (CDK9–cyclin T; compound 10000 nM): 0.008375 and 0.006377
Lanthascreen signal, sheet CDK2 (CDK2–cyclin A; Compound 0.038147 nM): 0.0135 and 0.01393
Lanthascreen signal, sheet CDK2 (CDK2–cyclin A; Compound 0.152588 nM): 0.0137 and 0.01436
Lanthascreen signal, sheet CDK2 (CDK2–cyclin A; Compound 0.610352 nM): 0.01422 and 0.01354
Lanthascreen signal, sheet CDK2 (CDK2–cyclin A; Compound 9.76563 nM): 0.01407 and 0.01385
Lanthascreen signal, sheet CDK2 (CDK2–cyclin A; Compound 39.0625 nM): 0.01288 and 0.01319
Lanthascreen signal, sheet CDK2 (CDK2–cyclin A; Compound 156.25 nM): 0.01128 and 0.01245
Lanthascreen signal, sheet CDK2 (CDK2–cyclin A; Compound 625 nM): 0.01025 and 0.01024
Lanthascreen signal, sheet CDK2 (CDK2–cyclin A; Compound 2500 nM): 0.009848 and 0.009236
Lanthascreen signal, sheet CDK2 (CDK2–cyclin A; Compound 10000 nM): 0.00863 and 0.008753
IC50 (CDK2–cyclin A; Supplementary Table 2, read-out: Lanthascreen IC50 [nM] CDK2): 239 nM
Structure (SMILES): CC(C)n1cnc2c(NCc3ccc(-c4ccccn4)cc3)nc(N3CCOCC3)nc21 [DS19]
EC50 (HEK293T cells; Homo sapiens, HEK-293T, HEK293T viability, 72 h, compound alone, read-out: Cellular assays EC50): 203 nM
Toxicity rescue (HEK293T cells; MLN4924-mediated cytotoxicity rescue, 10 µM used where n.d.): 300%
